# Experiments:
# Rattus norvegicus = assay: Antiinflammatory activity in Sprague-Dawley rat model of carrageenan-induced thermal hyperalgesia assessed as paw withdrawal latency time at 30 mg/kg, po administered 1 hr prior to carrageenan challenge and measured after 3 hrs by planter test (reference value: 4.13 +/- 0.45 sec); assay type: functional
# [1] = Cardiotoxicity in Sprague-Dawley rat assessed as SBP rate at 50 mg/kg; assay type: toxicity, organism-based; conditions: in vivo
structure (smiles),measurement,setting,value
CC(=O)N(C1=CC(=O)CCC1)c1ccc(Cl)cc1,Time,Rattus norvegicus,6.95 s
same,Activity,[1],Non-Toxic

# Reference: ChEMBL document CHEMBL4359901, “Cyclic enaminone as new chemotype for selective cyclooxygenase-2 inhibitory, anti-inflammatory, and analgesic activities” (Eur J Med Chem, 2019)
